Data published in patent US11136409B2, “Compositions and methods for identification, assessment, prevention, and treatment of AML using USP10 biomarkers and modulators” (Dana-Farber Cancer Institute, Inc., priority 2016, dated 2021).
Read-outs that look alike come from different tables or passages of the source.

Legend:
USP7 = USP7 (Homo sapiens, UniProt Q93009); experiment: USP7 IC50 of HBX19818 analogs (Table 9); assay type: biochemical; conditions: read-out: USP7 IC50 +/− SEM
[1] = molecular target: T1, human USP10 (residues 376-798) (Homo sapiens, UniProt Q14694); experiment: In vitro USP10 activity assay (Ubiquitin-AMC); assay type: biochemical; conditions: ubiquitin-AMC as substrate; purified enzyme; read-out: USP10 biochemical IC50
T1 construct: A construct of human USP10 covering residues 376-798 in the pET28a vector; His-tag (cleaved yes); made in house; host or cells: E. coli BL21 (DE3)
Method: Protein expression and purification. A construct of human USP10 covering residues 376-798 in the pET28a vector was over-expressed in E. coli BL21 (DE3) in TB medium in the presence of […] of kanamycin. Cells were grown at 37° C. to an OD of 0.8, cooled to 17° C., induced with 500 μM isopropyl-1-thio-D-galactopyranoside, incubated overnight at 17° C., collected by centrifugation, and stored at −80° C. Cell pellets were sonicated in buffer A (50 mM HEPES (pH 7.5), 300 mM NaCl, 10% glycerol, 10 mM Imidazole, and 3 mM BME) and the resulting lysate was centrifuged at 30,000×g for 30 min. Ni-NTA beads (Qiagen) were mixed with lysate supernatant for 30 min and washed with buffer A. Beads were transferred to an FPLC-compatible column and the bound protein was washed with 15% buffer B (50 mM HEPES (pH 7.5), 300 mM NaCl, 10% glycerol, 300 mM Imidazole, and 3 mM BME) and eluted with 100% buffer B. Thrombin was added to the eluted protein and incubated at 4° C. overnight. The sample was then passed through a HiPrep 26/10 desalting column (GE Healthcare) pre-equilibrated with buffer A without imidazole, and the eluted protein was subjected to a second Ni-NTA step to remove His-tag and Thrombin. The eluent was concentrated and passed through a Superdex® 200 10/300GL column (GE Healthcare) in a buffer containing 20 mM HEPES (pH 7.5), 150 mM NaCl, and 1 mM DTT. Fractions were pooled, concentrated to 20 mg/ml, and frozen at −80° C.
In vitro USP10 activity assay. Recombinant USP10, residues 376-798, was tested for its activity in a Ubiquitin-AMC assay in presence or absence of inhibitors. For this assay, 10 nM USP10 were pre-incubated with different concentrations of inhibitors or DMSO as a control in 50 mM HEPES pH7.6, 0.5 mM EDTA, 11 uM ovalbumin, and 5 mM DTT. The reaction was incubated for 6 hours at room temperature prior to the addition of 2 uM Ubiquitin-AMC (Boston Biochem) substrate. The initial rate of the reaction was measured by collecting fluorescence data at one minute intervals over 30-minute period using a CLARIOstar® fluorescence plate reader at excitation and emission wavelength of 345 and 445 nm, respectively. The calculated initial rate values were plotted against inhibitor concentrations to determine IC50 values.

Ba/F3-FLT3-ITD cells = experiment: Immunoblot of FLT3 / Beclin-1 in Ba/F3-FLT3-ITD cells; assay type: cell-based, murine; conditions: immunoblot; Ba/F3-FLT3-ITD cells
From the text: The following antibodies were purchased from Cell Signaling Technology (Danvers, Mass.): total AKT (rabbit, #9272) and total p44/42 MAPK (Erk1/2) (3A7) (mouse, #9107) were used at 1:1000 dilution. Anti-GAPDH (D16H-11) XP (R) (rabbit mAb, #5174) was used at 1:1000 dilution. Beclin-1 (rabbit, #3738) was used at 1:1000. USP10 (D7A5) (rabbit, #8501) was used at 1:1000 dilution. P53 (rabbit, #9282) was used at 1:1000 dilution. β-tubulin (rabbit, #2146s) was used 1:1000.
FLT3/Flk-2 (C-20) (sc-479) and Ub (P4D1) (mouse, sc-8017) were purchased from Santa Cruz Biotechnology, Inc. (Dallas, Tex.) and used at 1:1000 dilution for immunoblotting. Anti-pTyr (mouse, clone 4G10) was purchased from Upstate Biotechnology (Lake Placid, N.Y.) and was used at 1:1000 dilution. Anti-HAUSP/USP7 antibody (rabbit, ab4080) and anti-ubiquitin antibody (rabbit, ab7780) were purchased from Abcam (Cambridge, Mass.) and used at 1:1000 dilution.
Protein lysate preparation, immunoblotting, and immunoprecipitation were carried out as previously described in Weisberg et al. (2002) Cancer Cell 1:433-443.

NB4-luc+ = experiment: Anti-proliferation, 24 hr treatment (CellTiter-Glo); assay type: cell-based, human; conditions: 24 hr treatment; NB4-luc+ (FLT3 wt or null); read-out: Anti-proliferation IC50
From the text: (§1) Nomo-1, P31-FUJ, and NB4 were obtained from Dr. Gary Gilliland. MV4, 11 cells were obtained from Dr. Anthony Letai. Hel, K562, THP, U937, TF-1 and K052 cells were purchased from the American Type Culture Collection (ATCC) (Manassas, Va., USA). […] Cell lines were submitted for cell line authentication and were authenticated within 6 months of manuscript preparation through cell line short tandem repeat (STR) profiling (DDC Medical, Fairfield, Ohio and Molecular Diagnostics Laboratory, Dana Farber Cancer Institute). […] PBMCs were generously provided by Dr. Steven Treon and Dr. Guang Yang.
(§2) The CellTiter-Glo® assay (Promega, Madison, Wis.) was used for proliferation studies and carried out according to manufacturer instructions. Cell viability is reported as percentage of control (untreated) cells, and error bars represent the standard error of the mean for each data point.

MV4,11 = experiment: as above; assay type: cell-based, human; conditions: 24 hr treatment; MV4,11 (FLT3-ITD); read-out: Anti-proliferation IC50
From the text: as §1, §2

MOLM14 = experiment: as above; assay type: cell-based, human; conditions: 24 hr treatment; MOLM14 (FLT3-ITD); read-out: Anti-proliferation IC50
From the text: as §1, §2

MOLM13-luc+ = experiment: as above; assay type: cell-based, human; conditions: 24 hr treatment; MOLM13-luc+ (FLT3-ITD); read-out: Anti-proliferation IC50
From the text: as §1, §2

K052 = experiment: as above; assay type: cell-based, human; conditions: 24 hr treatment; K052 (FLT3 wt or null); read-out: Anti-proliferation IC50
From the text: as §1, §2

P31 = experiment: as above; assay type: cell-based, human; conditions: 24 hr treatment; P31 (FLT3 wt or null); read-out: Anti-proliferation IC50
From the text: as §1, §2

OCI-AML5 = experiment: as above; assay type: cell-based, human; conditions: 24 hr treatment; OCI-AML5 (FLT3 wt or null); read-out: Anti-proliferation IC50
From the text: as §1, §2

U937 = experiment: as above; assay type: cell-based, human; conditions: 24 hr treatment; U937 (FLT3 wt or null); read-out: Anti-proliferation IC50
From the text: as §1, §2

TF-1 = experiment: as above; assay type: cell-based, human; conditions: 24 hr treatment; TF-1 (FLT3 null); read-out: Anti-proliferation IC50
From the text: as §1, §2

NOMO-1 = experiment: as above; assay type: cell-based, human; conditions: 24 hr treatment; NOMO-1 (FLT3 wt or null); read-out: Anti-proliferation IC50
From the text: as §1, §2

HEL = experiment: as above; assay type: cell-based, human; conditions: 24 hr treatment; HEL (FLT3 wt or null); read-out: Anti-proliferation IC50
From the text: as §1, §2

K562 = experiment: as above; assay type: cell-based, human; conditions: 24 hr treatment; K562 (FLT3 wt or null); read-out: Anti-proliferation IC50
From the text: as §1, §2

PBMCs = experiment: Treatment of PBMCs from healthy donors with USP10-targeting inhibitors; assay type: cell-based, human
From the text: as §1, §2

[2] = tested on: mutant FLT3-expressing cells; experiment: Dynamic BH3 profiling (mitochondrial priming); assay type: cell-based, human; conditions: cytochrome c release in response to Bim peptide, 14 h; compared to wt or null FLT3-expressing cells
Method: To determine drug-induced changes in mitochondrial priming, dynamic BH3 profiling was performed as previously described in Montero et al. (2015) Cell 160:977-989 and Pan et al. (2014) Cancer Discov. 4:362-375. Briefly, 0.4×10^6 cells/well were exposed to drug treatment for 14 hours. At the end of incubation time, cells were washed in PBS, pelleted at 500×g for 5 min, and resuspended in MEB buffer. Fifteen μl of cell suspension was added to each well of 384 well plate containing 15 μl of MEB buffer containing 20 μg/mL digitonin and BH3 peptides at twice their final concentration, and the mixture was incubated for 60 min at 26° C. to allow mitochondrial depolarization. Peptide exposure was then terminated by adding 10 μl 4% formaldehyde in PBS for 15 min, followed by neutralization with N2 buffer (1.7M Tris, 1.25M glycine, pH 9.1) for 10 min. In order to determine cytochrome C levels, anti-cytochrome C clone 6H2.B4 conjugated to Alexa Fluor® 647 (BD Bioscience) was diluted 1:50 in 10× staining buffer (10% BSA, 2% Tween-20 and 0.02% sodium azide in PBS) and 10 μl of this antibody-containing buffer was added to each well for a final dilution of 1:400. Cells were stained overnight at 4° C. in dark and data were acquired on a BD LSRFortessa™ analyzer (BD Biosciences). Priming change (Δ) was calculated by comparing cytochrome C abundance in treated cells to that of DMSO-treated control cells.

[3] = tested on: AML primagraft (D835Y+, FLT3-ITD+) cells; experiment: Treatment of mutant FLT3-expressing AML primagraft cells ex vivo; assay type: cell-based, human; conditions: read-out: IC50 (+/−S.D.) AML primagraft (D835Y+, FLT3-ITD+)
Method: All animal studies were performed according to protocols approved by the Dana-Farber Cancer Institute's Institutional Animal Care and Use Committee. […] Mice were sacrificed on day 21 of treatment. Bone marrow was flushed from mouse femurs, and spleens and livers were dissected and preserved first in formalin, followed 24 hours later by preservation in 70% ethanol. […] All AML primagraft samples used in the studies described herein were obtained through the Public Repository of Xenografts (proxe.org).
as §2

Sequence of USP7 (Q93009 whole entry, the tested form may be a part): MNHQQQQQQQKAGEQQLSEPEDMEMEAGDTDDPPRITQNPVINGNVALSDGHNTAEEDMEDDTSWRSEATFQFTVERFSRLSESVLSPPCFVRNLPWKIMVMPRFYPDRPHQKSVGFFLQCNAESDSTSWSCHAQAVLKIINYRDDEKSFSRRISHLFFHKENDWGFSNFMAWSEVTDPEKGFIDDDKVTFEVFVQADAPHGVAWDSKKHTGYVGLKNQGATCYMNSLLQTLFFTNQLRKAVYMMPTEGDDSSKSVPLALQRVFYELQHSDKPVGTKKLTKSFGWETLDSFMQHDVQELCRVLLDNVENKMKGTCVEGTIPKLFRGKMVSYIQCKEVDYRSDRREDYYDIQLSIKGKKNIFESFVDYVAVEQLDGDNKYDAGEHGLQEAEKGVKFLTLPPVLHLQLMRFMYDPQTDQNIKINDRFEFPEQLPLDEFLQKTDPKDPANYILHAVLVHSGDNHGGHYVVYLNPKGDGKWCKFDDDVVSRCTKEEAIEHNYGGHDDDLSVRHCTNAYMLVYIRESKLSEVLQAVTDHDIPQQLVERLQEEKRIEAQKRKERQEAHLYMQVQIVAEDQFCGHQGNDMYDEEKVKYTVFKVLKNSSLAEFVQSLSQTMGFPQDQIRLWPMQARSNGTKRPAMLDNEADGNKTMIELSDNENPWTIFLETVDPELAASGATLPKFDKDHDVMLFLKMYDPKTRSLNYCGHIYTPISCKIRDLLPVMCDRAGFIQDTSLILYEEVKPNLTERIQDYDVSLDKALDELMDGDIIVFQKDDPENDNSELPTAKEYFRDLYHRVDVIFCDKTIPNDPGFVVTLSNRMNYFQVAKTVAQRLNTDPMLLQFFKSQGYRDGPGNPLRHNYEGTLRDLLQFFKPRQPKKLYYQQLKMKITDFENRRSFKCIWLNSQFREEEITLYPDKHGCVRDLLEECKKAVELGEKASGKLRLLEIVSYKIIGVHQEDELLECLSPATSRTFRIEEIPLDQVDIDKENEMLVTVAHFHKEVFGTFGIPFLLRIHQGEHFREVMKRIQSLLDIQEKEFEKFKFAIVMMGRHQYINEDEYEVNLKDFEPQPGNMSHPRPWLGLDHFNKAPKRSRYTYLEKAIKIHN
T1 sequence (Q14694 376-798): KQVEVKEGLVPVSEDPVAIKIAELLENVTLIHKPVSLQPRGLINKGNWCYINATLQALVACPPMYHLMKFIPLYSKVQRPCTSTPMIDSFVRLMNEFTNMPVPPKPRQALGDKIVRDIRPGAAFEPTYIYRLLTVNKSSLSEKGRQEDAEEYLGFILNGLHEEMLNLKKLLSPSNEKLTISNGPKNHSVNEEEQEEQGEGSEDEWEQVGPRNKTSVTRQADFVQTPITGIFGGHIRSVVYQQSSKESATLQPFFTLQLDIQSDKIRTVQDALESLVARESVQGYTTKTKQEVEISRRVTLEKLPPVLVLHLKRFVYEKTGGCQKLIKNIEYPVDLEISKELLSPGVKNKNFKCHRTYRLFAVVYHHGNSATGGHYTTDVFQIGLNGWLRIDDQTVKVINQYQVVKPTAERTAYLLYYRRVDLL

CCN(CCCNC(=O)c1ccc2nc3c(c(Cl)c2c1)CCCC3)c1ccccc1 [C598-0468]
IC50 (USP7): > 100 µM
IC50 [1]: > 100 µM
FLT3 protein levels (Ba/F3-FLT3-ITD cells): no effect on FLT3 levels

CCN(CC)S(=O)(=O)c1ccc(NC(=O)c2ccc3nc4c(c(Cl)c3c2)CCCC4)cc1 [C598-0646]
IC50 (USP7): > 100 µM

O=C(NCCN1CCN(Cc2ccccc2)CC1)c1ccc2nc3c(c(Cl)c2c1)CCCC3 [C598-0571]
IC50 (NB4-luc+): 29 µM
IC50 (MV4,11): 9.2 µM
IC50 (MOLM14): 18.6 µM
IC50 (MOLM13-luc+): 12.6 µM
IC50 (K052): 35.1 µM
IC50 (P31): 30 µM
IC50 (OCI-AML5): 37.7 µM
IC50 (U937): 21.9 µM
IC50 (TF-1): 18.4 µM
IC50 (NOMO-1): 20.9 µM
IC50 (HEL): 40.7 µM
IC50 (K562): 35.9 µM
IC50 (USP7): 22 µM
IC50 (PBMCs; 24 hr assay, PBMC#1, read-out: IC50 (+/−S.D.) PBMC#1): 32.3 µM
IC50 (PBMCs; 24 hr assay, PBMC#2, read-out: IC50 (+/−S.D.) PBMC#2): 31.3 µM
IC50 (PBMCs; 72 hr assay, PBMC#1, read-out: IC50 (+/−S.D.) PBMC#1): 16.6 µM
IC50 (PBMCs; 72 hr assay, PBMC#2, read-out: IC50 (+/−S.D.) PBMC#2): 14.8 µM
Mitochondrial priming for apoptosis [2]: more strongly
IC50 ([3]; 24 hr assay): 10.3 µM
IC50 ([3]; 72 hr assay): 1.4 µM

O=C(NCCc1ccc(Cl)cc1)c1ccc2nc3c(c(Cl)c2c1)CCCC3 [C598-0515]
IC50 (USP7): > 100 µM
